28 molecules from the supplement of paper PMC12137928 can be followed below.

The subject of assay [1] is HCT116. Conditions: 72 h. An outline of the steps: (§1)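 HCT116 cells were seeded at 250 per well in 1536-well plates with 5 h allowed for attachment. CellTiter-Glo luminescence was normalized against vehicle (0%) and positive control (-100%) before pattern correction. The IC50 and maximal efficacy figures derive from four-parameter Hill fits.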
Assay [2] concerns HCT116. In words: efficacy (maximum % inhibition of viability vs DMSO); higher = more cytotoxic. Conditions: 72 h. The method in brief: as §1

The structures appear in SMILES notation. Structures can show the parent of a compound that is named as a salt.

In the case of `C=C1CC[C@H](O)C/C1=C/C=C1\CCC[C@]2(C)[C@@H]([C@H](C)CCCC(C)(C)O)CC[C@@H]12` [Calcifediol (monohydrate)], the IC50 cell viability is > 45.8 µM in assay [1] (ICRF193 0 nM) and 23.1 µM in assay [1] (ICRF193 200 nM). The efficacy in assay [2] (ICRF193 200 nM) was found to be 42.8%.
Consider `C=C1/C(=C\C=C2/CCC[C@]3(C)[C@@H]([C@H](C)/C=C/[C@@H](O)C4CC4)CC[C@@H]23)C[C@@H](O)C[C@@H]1O` [Calcipotriene], for which the IC50 cell viability in assay [1] (ICRF193 0 nM) was > 45.8 µM; in assay [1] (ICRF193 200 nM), 20.6 µM. In addition, the efficacy in assay [2] (ICRF193 200 nM) was determined as 54%.
For the molecule `CC(C)OC(=O)Nc1ccc2[nH]c(-c3cscn3)nc2c1` [Cambendazole], the IC50 cell viability in assay [1] (ICRF193 0 nM) is 13 µM; in assay [1] (ICRF193 200 nM), 23.1 µM. Moreover, the efficacy was 63% in assay [2] (ICRF193 0 nM) and 97.2% in assay [2] (ICRF193 200 nM).
Regarding `CCOc1nc2cccc(C(=O)OC(C)OC(=O)OC3CCCCC3)c2n1Cc1ccc(-c2ccccc2-c2nn[nH]n2)cc1` (stereo unspecified) [Candesartan cilexetil (Atacand)], the IC50 cell viability in assay [1] (ICRF193 0 nM) was 20.6 µM; in assay [1] (ICRF193 200 nM), 29.1 µM. For the same molecule, the efficacy was determined as 93% in assay [2] (ICRF193 0 nM) and 100% in assay [2] (ICRF193 200 nM).
As to `C=C(C)[C@@H]1CCC(C)=C[C@H]1c1c(O)cc(CCCCC)cc1O` [Cannabidiol], the IC50 cell viability stood at 20.6 µM in assay [1] (ICRF193 0 nM) and 23.1 µM in assay [1] (ICRF193 200 nM). Further, the efficacy was determined as 52.9% in assay [2] (ICRF193 0 nM) and 49.4% in assay [2] (ICRF193 200 nM).
Consider `C[C@@]12C(=O)OC(=O)[C@]1(C)[C@H]1CC[C@@H]2O1` [Cantharidin], for which the IC50 cell viability in assay [1] (ICRF193 0 nM) was 5.8 µM; in assay [1] (ICRF193 200 nM), 4.11 µM. Further, the efficacy in assay [2] (ICRF193 0 nM) is 74.9%; in assay [2] (ICRF193 200 nM), 77.2%.
Regarding `CO[C@@H]1[C@@H](O[C@@H]2O[C@H](C)[C@@H](O[C@H]3C[C@@](C)(O)[C@@H](OC(=O)CC(C)C)[C@H](C)O3)[C@H](N(C)C)[C@H]2O)[C@@H](CC=O)C[C@@H](C)C(=O)/C=C/[C@@H]2O[C@H]2C[C@@H](C)OC(=O)C[C@H]1OC(C)=O` [Carbomycin A], the IC50 cell viability in assay [1] (ICRF193 0 nM) turned out to be 25.9 µM; in assay [1] (ICRF193 200 nM) it was 20.6 µM. Also, the efficacy in assay [2] (ICRF193 0 nM) was found to be 93%; in assay [2] (ICRF193 200 nM), 91.2%.
Turning to `CC(C)C[C@H](NC(=O)[C@H](CCc1ccccc1)NC(=O)CN1CCOCC1)C(=O)N[C@@H](Cc1ccccc1)C(=O)N[C@@H](CC(C)C)C(=O)[C@@]1(C)CO1` [Carfilzomib], the IC50 cell viability amounted to 0.0183 µM in assay [1] (ICRF193 0 nM) and 0.0164 µM in assay [1] (ICRF193 200 nM). The efficacy in assay [2] (ICRF193 0 nM) stood at 86%; in assay [2] (ICRF193 200 nM) it was 89.7%.
For `CCCCCCNC(=O)n1cc(F)c(=O)[nH]c1=O` [Carmofur] the same measures were 10.3 µM, 8.2 µM, 87.1% and 92%.
For the molecule `NC(=O)C1(N2CCCCC2)CCN(CCCN2c3ccccc3CCc3ccccc32)CC1` [Carpipramine Dihydrochloride], the values for the IC50 cell viability in assay [1] (ICRF193 0 nM) and in assay [1] (ICRF193 200 nM) were 23.1 µM and 20.6 µM, respectively. Moreover, the efficacy in assay [2] (ICRF193 0 nM) worked out at 115%; in assay [2] (ICRF193 200 nM), 100%.
In the same order, the values of `COc1ccccc1OCCNCC(O)COc1cccc2[nH]c3ccccc3c12` (stereo unspecified) [Carvedilol tartrate] are 20.6 µM, 29.1 µM, 96.8% and 102%.
As for `Cc1ccc(-c2cc(C(F)(F)F)nn2-c2ccc(S(N)(=O)=O)cc2)cc1` [Celecoxib], the IC50 cell viability in assay [1] (ICRF193 0 nM) and in assay [1] (ICRF193 200 nM) was 18.3 µM each time. Also, the efficacy in assay [2] (ICRF193 0 nM) stood at 47.1%; in assay [2] (ICRF193 200 nM), 58.1%.
As to `CC(=O)OCC1=C(C(=O)O)N2C(=O)[C@@H](NC(=O)[C@H](N)c3ccccc3)[C@H]2SC1` [Cephaloglycin], the IC50 cell viability is > 45.8 µM in assay [1] (ICRF193 0 nM) and 6.51 µM in assay [1] (ICRF193 200 nM). The efficacy in assay [2] (ICRF193 200 nM) was found to be 61.5%.
Regarding `COc1ccc2cc1Oc1ccc(cc1)C[C@H]1c3c(cc4c(c3Oc3cc5c(cc3OC)CCN(C)[C@@H]5C2)OCO4)CCN1C` [Cepharanthine], the values for the IC50 cell viability in assay [1] (ICRF193 0 nM) and in assay [1] (ICRF193 200 nM) were > 45.8 µM and 4.61 µM, respectively. This molecule returned an efficacy in assay [2] (ICRF193 200 nM) of 41.2%.
In the case of `Cc1cc(Nc2ncc(Cl)c(Nc3ccccc3S(=O)(=O)C(C)C)n2)c(OC(C)C)cc1C1CCNCC1` [Ceritinib], the IC50 cell viability in assay [1] (ICRF193 0 nM) turned out to be 18.3 µM; in assay [1] (ICRF193 200 nM) it was 29.1 µM. The efficacy amounted to 108% in assay [2] (ICRF193 0 nM) and 105% in assay [2] (ICRF193 200 nM).
In the case of `COCc1c(C(C)C)nc(C(C)C)c(/C=C/[C@@H](O)C[C@@H](O)CC(=O)O)c1-c1ccc(F)cc1` [Cerivastatin sodium], the figures for the IC50 cell viability in assay [1] (ICRF193 0 nM) and in assay [1] (ICRF193 200 nM) were 1.03 µM and 0.92 µM, respectively. The efficacy in assay [2] (ICRF193 0 nM) was found to be 106%; in assay [2] (ICRF193 200 nM), 102%.
For `CCCCCCCCCCCCCCCC[n+]1ccccc1` [Cetylpyridinium bromide] the same measures were 2.59 µM, 2.59 µM, 90.6% and 90.4%.
For `N=C(NCCCCCCNC(=N)NC(=N)Nc1ccc(Cl)cc1)NC(=N)Nc1ccc(Cl)cc1` [Chlorhexidine] the same measures were 18.3 µM, 18.3 µM, 104% and 103%.
For `COc1ccc(C(Cl)=C(c2ccc(OC)cc2)c2ccc(OC)cc2)cc1` [Chlorotrianisene], the IC50 cell viability in assay [1] (ICRF193 0 nM) is > 45.8 µM; in assay [1] (ICRF193 200 nM), 23.1 µM. In assay [2] (ICRF193 200 nM), this molecule came in with an efficacy of 45.8%.
Take `Oc1c(Cl)cc(Cl)c2cccnc12` [Chloroxine]: the IC50 cell viability in assay [1] (ICRF193 0 nM) and in assay [1] (ICRF193 200 nM) was 29.1 µM each time. Moreover, the efficacy in assay [2] (ICRF193 0 nM) turned out to be 103%; in assay [2] (ICRF193 200 nM) it was 112%.
For the molecule `CN(C)CCCN1c2ccccc2Sc2ccc(Cl)cc21` [Chlorpromazine], the IC50 cell viability in assay [1] (ICRF193 0 nM) worked out at 20.6 µM; in assay [1] (ICRF193 200 nM), 29.1 µM. Also, the efficacy in assay [2] (ICRF193 0 nM) was 117%; in assay [2] (ICRF193 200 nM) it was 93.2%.
`CN(C)CC/C=C1/c2ccccc2Sc2ccc(Cl)cc21` [Chlorprothixene]: the IC50 cell viability in assay [1] (ICRF193 0 nM) is 16.4 µM; in assay [1] (ICRF193 200 nM), 25.9 µM. Also, the efficacy in assay [2] (ICRF193 0 nM) is 66.1%; in assay [2] (ICRF193 200 nM), 68.9%.
For `Cc1cc(C2CCCCC2)n(O)c(=O)c1` [Ciclopirox], the results for the IC50 cell viability in assay [1] (ICRF193 0 nM) and in assay [1] (ICRF193 200 nM) were 11.6 µM and 13 µM, respectively. For the same molecule, the values for the efficacy in assay [2] (ICRF193 0 nM) and in assay [2] (ICRF193 200 nM) were 107% and 98.9%, respectively.
As to `COCCOC(=O)C1=C(C)NC(C)=C(C(=O)OC/C=C/c2ccccc2)C1c1cccc([N+](=O)[O-])c1` (stereo unspecified) [Cilnidipine], the IC50 cell viability in assay [1] (ICRF193 0 nM) turned out to be 18.3 µM; in assay [1] (ICRF193 200 nM), 20.6 µM. Also, the efficacy in assay [2] (ICRF193 0 nM) is 82.3%; in assay [2] (ICRF193 200 nM), 103%.
On to `O=C1CCc2cc(OCCCCc3nnnn3C3CCCCC3)ccc2N1` [Cilostazol], for which the IC50 cell viability in assay [1] (ICRF193 0 nM) was > 45.8 µM; in assay [1] (ICRF193 200 nM) it was 23.1 µM. Further, the efficacy in assay [2] (ICRF193 200 nM) was 46%.
Take `C[C@@H](NCCCc1cccc(C(F)(F)F)c1)c1cccc2ccccc12` [Cinacalcet hydrochloride]: the IC50 cell viability in assay [1] (ICRF193 0 nM) and in assay [1] (ICRF193 200 nM) was 20.6 µM throughout. Also, the efficacy in assay [2] (ICRF193 0 nM) was 87.6%; in assay [2] (ICRF193 200 nM), 94.6%.
Take `Nc1nc(Cl)nc2c1ncn2[C@H]1C[C@H](O)[C@@H](CO)O1` [Cladribine]: the figures for the IC50 cell viability in assay [1] (ICRF193 0 nM) and in assay [1] (ICRF193 200 nM) were 1.3 µM and 0.651 µM, respectively. Further, the efficacy worked out at 56.1% in assay [2] (ICRF193 0 nM) and 66.1% in assay [2] (ICRF193 200 nM).
On to `CN1CCC[C@@H]1CCO[C@](C)(c1ccccc1)c1ccc(Cl)cc1` [Clemastine fumarate], for which the IC50 cell viability in assay [1] (ICRF193 0 nM) was found to be 18.3 µM; in assay [1] (ICRF193 200 nM), 23.1 µM. In addition, the efficacy in assay [2] (ICRF193 0 nM) was 88%; in assay [2] (ICRF193 200 nM) it was 114%.
